Values quoted from earlier work, collected in patent US4486414A, “Dolastatins A and B cell growth inhibitory substances” (Arizona Board of Reagents, priority 1983, dated 1984).

Tests used:
murine B16 melanoma = conditions: intraperitoneal doses of 11 μg/kg/day; cited from earlier work
[1] = tested on: murine P388 lymphocytic leukemia; conditions: intraperitoneal doses of 11 μg/kg/day; cited from earlier work

dolastatin 1
curative response (murine B16 melanoma): 30% | life extension [1]: 88%
